System: Escherichia coli (E. coli)
Experiment: Antibacterial test according to JIS Z2801 using E. coli (film surface not wiped with alcohol)
Format: cell-based
Conditions: judgement in the text
Description: For example, in an antibacterial test according to JIS Z2801, a predetermined amount of Escherichia coli (E. coli) or the like is added to a 1/500 nutrient broth. The nutrient broth is dropped onto the surface of the film of a 4 cm square, and is covered with a polyethylene film. The sample is placed at 35° C. After 24 hours, the surface of the freshness-retentive film is washed to recover the nutrient broth. The number of bacterial cells is measured with a nutrient agar. In this test method, alkyldiethanolamine should be diffused in the nutrient broth (solution) in a concentration of 30 ppm or more.
An antibacterial test was performed using Escherichia coli (E. coli) according to JIS Z2801. To keep the state of the surface of the freshness-retentive film, the surface thereof was not wiped with alcohol.
Predetermined amounts of Escherichia coli (E. coli), Staphylococcus aureus, Salmonella, and Vibrio parahaemolyticus (broth (0.4 cc) used in a JIS test) were added to a 1/500 nutrient broth. The nutrient broth was dropped onto the surface of a freshness-retentive film of a 4 cm square, and was covered with a polyethylene film. The film was placed at 35° C., and after 24 hours, the surface of the freshness-retentive film was washed. The washing liquid containing the nutrient broth was recovered, and was cultured on a nutrient agar. The number of colonies was counted.
Since the number of bacterial cells is difficult to count under a microscope, the number of colonies was visually counted. The number of colonies per gram (g) was defined as the number of living bacterial cells CFU (colony forming unit) (unit: [colonies/g]). A sample sandwiched between two polyethylene films was used as a control (Control) for comparison. In Tables, the averages at n=1 to 3 are also shown. If a fluctuation in the measured values is 10 times or more, the average is not calculated according to the JIS specification.
An antibacterial test was performed in the same manner as in Experiment 1.
An antibacterial test was performed in the same manner as in Experiment 1. […]

| Molecule | antibacterial characteristics against E. coli (in words) |
| --- | --- |
| CCCCCCCCCCCCCCCCCC(=O)OCC(O)CO (stereo not drawn) [glycerol monostearate] | inhibits the antibacterial activity of stearyldiethanolamine |
| CCCCCCCCCCCCCCCCCCN(CCO)CCO [stearyldiethanolamine] | significantly superior to those of stearyldiethanolamine monostearate |
| diglycerol monopalmitate | does not inhibit the antibacterial activity of stearyldiethanolamine |
